As usually defined, the melting point is the temperature, or range, at which the solid turns liquid.

In turn, `CCC(C)C(NC(=O)OC)C(=O)NN(Cc1ccc(-c2cncs2)cc1)CC(O)C(Cc1ccccc1)NC(=O)C(NC(=O)OC)C(C)(C)C` (stereo not given) displayed a melting point of 139 to 141 °C.
In turn, `C=CCOc1c(I)cc(C(=O)CCC(=O)c2cc(OC)c(OC)c(OC)c2)cc1OC` registered a melting point of 113 to 114 °C.
`COc1ccc(/C=C/c2nc3c(c(=O)n(C)c(=O)n3C)n2C)c(OC)c1` yielded a melting point of 242 °C.
As for `CCOC(=O)c1cn(C2CC2)c2c(F)c(N3CCNC(C)C3)c(F)c(N)c2c1=O` (stereo not given), the figure is 132 to 134 °C; as for `CCN1CCc2ccc(Nc3ncc(C(F)(F)F)c(Nc4ccc(N5CCOCC5)cc4OC)n3)cc2CC1`, 167 to 170 °C.
Take `Nc1ncc(-c2ccnc(N3CCOCC3)n2)c2ccccc12`: the melting point lay within 255 to 256 °C.
Take `CCCC1(Br)Cc2c(c(C)c(C)c3oc(C(=O)O)cc23)C1=O` (stereo not given): the melting point amounted to 233 °C.
Then `CCCc1c(COCCOc2ccc(-c3nnn[nH]3)cc2)ccc(C(C)=O)c1O`, with 170 to 172 °C.
As to `COC(=O)CCC(=O)Nc1cccnc1`, the melting point is 78 to 79 °C.
Regarding `CNC(=O)OCc1cnc2c(NC(=O)c3c(Cl)cccc3Cl)cccc2c1-n1ccnc1`, the melting point was 240 to 242 °C.
For `CCSc1cc(C(=O)O)cc(N)c1Oc1ccccc1`, the melting point was 154 to 155 °C.
The compound `CCOC(=O)c1nnc(N(C)C)n1C` displayed a melting point of 52 to 53 °C.
As for `COC(=O)C(=O)c1cn(CCO)c2ccc(OCc3ccccc3)cc12`, the figure is 148 to 150 °C.
`Cc1ccc(Cl)c(Nc2ccccc2C(N)=O)c1Cl` displayed a melting point of 185 to 187 °C.
Then `COc1ccccc1CN1CCC(=O)C(C2c3ccccc3C=Cc3ccccc32)C1` (stereo not given), with 113 to 114 °C; and `CC(C)COc1ccc(N)cc1C#N`, with 88 to 93 °C.
In the case of `COCC(C)N(Cc1ccc(OC)c(OC)c1)C(=O)C(Cl)Cl` (stereo not given), the melting point fell in the range of 75 to 76 °C.
Turning to `CN(C)C1CCN(S(=O)(=O)c2cc(C#N)ccc2Sc2cc(Cl)ccc2Cl)CC1`, the melting point lay in the range of 140 to 143 °C.
With `O=CNn1cc(C(=O)O)c(=O)c2cc3c(cc21)OCO3`, the melting point stood at 302 °C.
Compound `Cc1ccc(C)n1-c1ccc(C(C)C#N)cc1` (stereo not given) gave a melting point of 79 to 80 °C.
Then `CCCCCCCCCCCCOc1ccc(-c2ncc(-c3ccc(O)c(F)c3F)cn2)cn1`, with 111 to 118 °C; and `COC(=O)c1cc2cc(C(=O)c3cccs3)c(Cl)c(Cl)c2o1`, with 184 to 187 °C.
`Cc1nn(-c2ccccn2)cc1COc1ccc(COc2ncccc2CC(=O)O)cc1` gave a melting point of 150 to 151 °C.
As for `COC(=O)C1=C(C)NC(C)=C(C(=O)OCOC(C)=O)C1c1cccc(Cl)c1Cl` (stereo not given), the melting point was in the range of 144 to 148 °C.
As for `CCSCc1cc2cc(CN3CCOCC3)cc3c(=O)c(C(=O)NCc4ccc(Cl)cc4)cn1c23`, the figure is 177 to 178 °C; as for `CS(=O)(=O)c1cc(O)ccc1/C=C/c1ccc(O)cc1`, 244 to 245 °C.
Then `Clc1ccc(-c2ccc(Cl)nn2)cc1`, with 202 to 204 °C; and `COC(=O)CNc1ccc(C(C)C)cc1`, with 35 to 36 °C; and `ON=CC1=NCCCS1`, with 114 to 115 °C.
As for `COCCCc1cccc(C2(c3ccc(OC(F)F)cc3)N=C(N)N(C)C2=O)c1` (stereo not given), the melting point lay in the range of 48 to 50 °C.
Consider `Cn1cc(-c2cc(-c3cnc4c(c3)CCN4)ccn2)n(-c2ccc(C(C)(C)C#N)cc2)c1=O`, for which the melting point was 247 °C.
Then `COC(=O)c1cccc2c(=O)c3cc(I)ccc3[nH]c12`, with 224 to 226 °C.
Then `O=c1[nH]c2cc([N+](=O)[O-])ccc2c(=O)n1CCCN1CC=C(c2ccc(Cl)cc2)CC1`, with 210 to 212 °C; and `O=Cc1c[nH]c(-c2ccccc2)c1`, with 136 to 137 °C.
For the compound `CCCc1cc(COc2cc(C)nc(C)c2OC)ccc1-c1ccccc1S(=O)(=O)Nc1noc(C)c1C`, the melting point was in the range of 56 to 59 °C.
Then `O=C1C(=O)N2c3c(cc(Cl)cc31)CCC2c1ccccc1` (stereo not given), with 173 to 174 °C; and `CCC(Oc1ccc(C(C)(C)CC)cc1C(C)(C)CC)C(=O)Nc1ccc(Cl)c(NC(=O)C(C(=O)C(C)(C)C)N2C(=O)NC(=C(C)C)C2=O)c1` (stereo not given), with 178 to 179 °C.
The compound `NC(=O)c1cccc(-c2ccc(Oc3ccc(F)cc3)cc2)n1` registered a melting point of 150 to 152 °C.
Then `O=c1sc2ccccc2n1Cc1nc2ccccc2n1-c1ccccc1`, with 196 to 198 °C; and `OCC1OC(c2c(Cl)c(Cl)cc3nc(Cl)cn23)C(O)C1O` (stereo not given), with 267 to 268 °C; and `O=Cc1ccc(C=Cc2ccc(C=O)cc2)cc1`, with 169 °C.
Then `O=C(c1cccc([N+](=O)[O-])c1)N1CCOCC1`, with 83.5 to 85 °C; and `N#Cc1c([N+](=O)[O-])ccc(Cl)c1CBr`, with 89 °C.
`Nc1nc2ccccc2n1CCCN1CCCCC1`: the melting point fell in the range of 179 to 181 °C.
`O=CNc1nc(C(=NOCC(=O)OC(c2ccccc2)c2ccccc2)C(=O)O)cs1` gave a melting point of 143 to 151 °C.
In turn, `CC(O)CN(CC(C)O)C(=O)c1ccc(C(=O)N2CCN(c3ncccc3NC(C)C)CC2)cc1` (stereo not given) displayed a melting point of 73 to 75 °C.
Regarding `CSc1ncc(CCN2CCC(C3(c4ccc(F)cc4)OCCO3)CC2)c(O)n1`, the melting point was determined as 206 °C.
Turning to `c1cc2[nH]ncc2cc1NC1CCN(CC2CCCCC2)CC1`, the melting point lay within 179 to 180 °C.
Then `O=C(CCl)N1CCC(c2noc3cc(F)ccc23)CC1`, with 101 to 102 °C; and `COc1cc(OC)c2c(=O)[nH]c(-c3ccc(OCCO)c(-c4ccccc4)n3)nc2c1`, with 240 to 242 °C; and `NC(CN1C(=O)C2(COc3cc4c(cc32)OCO4)c2ccccc21)=NO` (stereo not given), with 235 to 238 °C.
In turn, `CCOC(C)=C(C#N)C(=O)Nc1ccccc1F` gave a melting point of 158 to 160 °C.
Then `Nc1cccc(P(=O)(O)O)c1`, with 300 °C.
Then `O=c1[nH]c(=O)n(CCCCl)c2ccccc12`, with 183 to 184 °C; and `Cc1cc(CC(=O)c2ccc(F)cc2)on1`, with 92 to 93 °C; and `CC(=O)OC1CSC(Oc2cncc(-c3ccsc3)c2)C(OC(C)=O)C1OC(C)=O` (stereo not given), with 175 °C.
Compound `Nc1nc(N)c(-c2cccc3ccccc23)c(C(F)(F)F)n1` came in with a melting point of 224 to 226 °C.
As for `CSc1ccc(C(O)C#CC2(O)CCCC2)cc1` (stereo not given), the figure is 118 to 120 °C.
The compound `O=c1ncc(Br)cn1CC=CCl` showed a melting point of 114 to 116 °C.
On to `COc1c(Cl)cc(F)c(-n2ncc(C(F)(F)F)cc2=O)c1N`, for which the melting point lay in the range of 156 to 157 °C.
Then `O=C(CC(c1ccccc1)c1ccccc1)Nc1ccccc1Cl`, with 181 °C; and `O=C(NOCCO)c1ccc(F)c(F)c1Nc1ccc(I)cc1Cl`, with 173 to 175 °C; and `CON(C(=Cc1ccccc1)C(N)=O)c1ccccc1`, with 69 °C.
As for `O=C(c1ccc(F)cc1)c1ccc2nc(Cl)nc(-c3cccc(Cl)c3)c2c1`, the figure is 138 °C; as for `CCOC(=O)c1c(CI)nc2cc(OC)c(OC)cc2c1-c1ccc(OC)c(OC)c1`, 170 to 171 °C.
Then `CN(c1ccccc1[N+](=O)[O-])S(=O)(=O)c1cccnc1Cl`, with 180 °C.
Regarding `O=[N+]([O-])c1ccc(S(=O)CCCCl)cc1` (stereo not given), the melting point lay in the range of 72.5 to 74.5 °C.
As for `COc1cccc(C(=O)NCCc2ccc(-c3ccc(OC(C)(C)C(=O)O)cc3)cc2)c1OC`, the figure is 184 °C; as for `CCc1ccccc1S(=O)(=O)c1cc(N)c2ncccc2c1[N+](=O)[O-]`, 213 to 216 °C.
As for `Cc1ccc(-c2ccc3c(c2)C=C(C(=O)Nc2ccc(CN4CCC(Cc5ccccc5)CC4)cc2)CC3)cc1`, the melting point was 199 to 201 °C.
`COc1ccc(C(=O)c2cc3c(ccc4ccccc43)oc2=O)cc1` showed a melting point of 158 to 160 °C.
As for `COc1ccccc1N=Nc1ncc[nH]1`, the figure is 152 to 153 °C; as for `CC(=O)C1(O)CCC2C3CCC4=CC(=O)CCC4(C)C3C(Cl)CC21C` (stereo not given), 193 to 196 °C; as for `CSc1noc(-c2ccc(O)cc2)c1C#N`, 194 to 196 °C.
On to `CCCCCCC(CCCn1c(CCC)nc2c(N)nc3ccccc3c21)=NO`, for which the melting point lay in the range of 113 to 115 °C.
Then `CCCN(CCCc1c[nH]c2c(OC)cccc12)C1COc2c(F)ccc(C(N)=O)c2C1` (stereo not given), with 158 to 164 °C; and `COc1ccc2c(c1)CCc1ccc(-c3ccccc3)cc1C21N=C(N)N(C)C1=O` (stereo not given), with 167 to 171 °C; and `Cc1oc(-c2ccco2)nc1COc1ccc(COc2nn(Cc3ccccc3)cc2C=O)cc1-c1ccccc1`, with 122 to 123 °C.
Then `COc1ccc(CC(=O)O)c(OCCCc2cn(-c3ccc(C(F)(F)F)cn3)nc2C(C)C)c1`, with 143 to 144 °C; and `C=C(C)c1ccc(C(C)(C)OOC(C)(C)c2ccccc2)cc1`, with 40 °C.
In turn, `CC1CN(C)CC(C)(c2cccc(O)c2)O1` (stereo not given) registered a melting point of 142 to 143 °C.
Then `CCCCc1cc2cc(C(=O)OCC)ccn2c1`, with 47 to 48 °C; and `COc1ccc(S(=O)(=O)NCC2CCN(C[C@H]3COc4ccc(Cl)cc4O3)CC2)cc1`, with 130 to 131 °C; and `NC(=O)Oc1ccc2c(c1)[nH]c(=O)c1c3ccc(OC(N)=O)cc3oc21`, with 215 to 220 °C.
`CCCCOC(=O)[C@H]1CN(c2ccc(C3CCSCC3)cc2)C(=O)O1` came in with a melting point of 94 to 96 °C.
Then `N#CC(C#N)=CN(N=C(C#N)C#N)c1ccc([N+](=O)[O-])cc1`, with 179 to 181 °C; and `CNC(=O)N(C)c1nnc(C(C)(C)CC#N)s1`, with 133 to 135 °C; and `COc1ccccc1OCC1SCCN1S(C)(=O)=O` (stereo not given), with 118 to 120 °C.
Then `COC1=CCC2=C(CCC3C2CCC2(C)C(=O)CCC32)C1` (stereo not given), with 106 to 110 °C.
`Cc1nc2c(Cl)cc(Cl)cc2c(=O)n1C1CCC(=O)NC1=O` (stereo not given) returned a melting point of 238 to 240 °C.

Source of the values: a melting point compilation (Tetko et al.; mined from patent text by program, amines drawn as free bases though some values may be those of a salt).
